Measured values as given in US8808760B2, “Extract from palm leaves and a method for producing the same” (Universiti Putra Malaysia, priority 2007, dated 2014).

How the values were obtained:
normotensive animals [1] = assay: Erythrocyte antioxidant enzymes (SOD, GSH-Px, CAT), normotensive animals; assay type: in vivo, rats
normotensive rats = assay: Serum nitric oxide, normotensive rats; assay type: in vivo; set-up: unit not given here
[2] = test system: SHR (spontaneously hypertensive rats); assay: Serum nitric oxide, SHR; assay type: in vivo; set-up: unit not given here
[3] = test system: SHR (spontaneous/genetically hypertensive animals); assay: Organ antioxidant enzymes (kidney, heart, brain), SHR; assay type: in vivo, rats
Text: SOD, GSH-Px, and CAT is the first line of antioxidative enzyme defense against oxidative stress, converting reactive oxygen to hydrogen peroxide and water.

[4] = test system: L-NAME induced hypertensive rats; assay: Morphology (body, kidney, heart weight), L-NAME rats; assay type: in vivo; settings: mean ± SEM
Text: (§1) The organ protective properties of the palm leaves extract and palm leaves functional ingredients on heart, and kidneys are shown in the morphology Table 4 below. […] Kidney/BW were similar in all groups. […] However, in L-NAME+captopril rats had lower Heart/BW ratio versus L-NAME.

L-NAME rats = assay: Serum nitric oxide, L-NAME rats; assay type: in vivo; set-up: unit not given here
normotensive animals [5] = assay: Morphology (body, kidney, heart weight), normotensive rats; assay type: in vivo; settings: mean ± SEM
Text: as §1

[6] = test system: SHR (spontaneously/genetically hypertensive rats); assay: Morphology (body, kidney, heart weight), SHR; assay type: in vivo; settings: mean ± SEM
[7] = test system: SHR (spontaneous/genetically hypertensive animals); assay: Erythrocyte antioxidant enzymes (SOD, GSH-Px, CAT), SHR; assay type: in vivo, rats
Text: SOD, GSH-Px, and CAT is the first line of antioxidative enzyme defense against oxidative stress, converting reactive oxygen to hydrogen peroxide and water. SOD, GSH-Px, and CAT […] activity indicate […] oxidative stress in hypertensive animals supplemented with oil palm leaves extract.

C[C@H](CS)C(=O)N1CCC[C@H]1C(=O)O [Captopril, captopril]
Erythrocyte Catalase (normotensive animals [1]; Week 0): 0.014 ± 0.0006 k/ml
Erythrocyte CuZn-SOD (normotensive animals [1]; Week 0): 0.014 ± 0.0010 U/ml
Erythrocyte Glutathione Peroxidase (normotensive animals [1]; Week 0): 16.5 ± 0.76
Erythrocyte Catalase (normotensive animals [1]; Week 6): 0.013 ± 0.0003 k/ml
Erythrocyte CuZn-SOD (normotensive animals [1]; Week 6): 0.022 ± 0.0006 U/ml
Erythrocyte Glutathione Peroxidase (normotensive animals [1]; Week 6): 21.1 ± 5.05
Erythrocyte Catalase (normotensive animals [1]; Week 8): 0.014 ± 0.0005 k/ml
Erythrocyte CuZn-SOD (normotensive animals [1]; Week 8): 0.015 ± 0.0019 U/ml
Erythrocyte Glutathione Peroxidase (normotensive animals [1]; Week 8): 9.3 ± 1.24
Erythrocyte Catalase (normotensive animals [1]; Week 12): 0.013 ± 0.0008 k/ml
Erythrocyte CuZn-SOD (normotensive animals [1]; Week 12): 0.018 ± 0.0006 U/ml
Erythrocyte Glutathione Peroxidase (normotensive animals [1]; Week 12): 26.2 ± 6.90
nitric oxide values measured in serum (normotensive rats; Week 0): 0.381 ± 0.023
nitric oxide values measured in serum (normotensive rats; Week 6): 0.573 ± 0.024
nitric oxide values measured in serum (normotensive rats; Week 8): 0.455 ± 0.060
nitric oxide values measured in serum (normotensive rats; Week 12): 0.525 ± 0.071
nitric oxide values measured in serum ([2]; Week 0): 0.230 ± 0.02
nitric oxide values measured in serum ([2]; Week 6): 0.425 ± 0.05
nitric oxide values measured in serum ([2]; Week 8): 0.438 ± 0.08
nitric oxide values measured in serum ([2]; Week 12): 0.572 ± 0.02 +
Organ Catalase ([3]; Heart): 4.08 ± 0.458 k/mg protein
Organ CuZn-SOD ([3]; Heart): 0.78 ± 0.301 U/mg protein
Organ GPx ([3]; Heart): 3.20 ± 0.23 U/mg protein
Organ Catalase ([3]; Kidney): 25.96 ± 2.04 k/mg protein
Organ CuZn-SOD ([3]; Kidney): 0.80 ± 0.199 U/mg protein
Organ GPx ([3]; Kidney): 2.02 ± 0.184 U/mg protein
Organ Catalase ([3]; brain): 1.96 ± 0.27 k/mg protein
Organ CuZn-SOD ([3]; brain): 1.26 ± 0.097 U/mg protein
Organ GPx ([3]; brain): 2.87 ± 0.360 U/mg protein
Final body weight [4]: 296.4 ± 5.97 g
Heart [4]: 0.91 ± 0.07 g
Heart/Body weight [4]: 3.096 ± 0.0003 mg/g
Kidney [4]: 2.017 ± 0.07 g
Kidney/Body Weight [4]: 6.822 ± 0.0002 mg/g
nitric oxide values measured in serum (L-NAME rats; Week 0): 0.402 ± 0.008
nitric oxide values measured in serum (L-NAME rats; Week 6): 0.585 ± 0.082
nitric oxide values measured in serum (L-NAME rats; Week 8): 0.742 ± 0.123
nitric oxide values measured in serum (L-NAME rats; Week 12): 0.44 ± 0.072
Final body weight (normotensive animals [5]): 291.4 ± 8.56 g
Heart (normotensive animals [5]): 1.02 ± 0.04 g
Heart/Body weight (normotensive animals [5]): 3.558 ± 0.0002 mg/g
Kidney (normotensive animals [5]): 2.140 ± 0.07 g
Kidney/Body Weight (normotensive animals [5]): 7.370 ± 0.0003 mg/g
Final body weight [6]: 259.09 ± 5.53 g
Heart [6]: 1.16 ± 0.07 g
Heart/Body weight [6]: 4.533 ± 0.0002 mg/g
Kidney [6]: 2.074 ± 0.09 g
Kidney/Body Weight [6]: 8.139 ± 0.0004 mg/g
Erythrocyte Catalase ([7]; Week 0): 0.019 ± 0.0007 k/ml
Erythrocyte CuZn-SOD ([7]; Week 0): 0.019 ± 0.0012 U/ml
Erythrocyte Glutathione Peroxidase ([7]; Week 0): 31.47 ± 0.94
Erythrocyte Catalase ([7]; Week 6): 0.017 ± 0.0003 k/ml
Erythrocyte CuZn-SOD ([7]; Week 6): 0.009 ± 0.0012 U/ml
Erythrocyte Glutathione Peroxidase ([7]; Week 6): 12.69 ± 2.47
Erythrocyte Catalase ([7]; Week 8): 0.017 ± 0.0004 k/ml
Erythrocyte CuZn-SOD ([7]; Week 8): 0.011 ± 0.0004 U/ml
Erythrocyte Glutathione Peroxidase ([7]; Week 8): 28.77 ± 2.05
Erythrocyte Catalase ([7]; Week 12): 0.016 ± 0.0003 k/ml
Erythrocyte CuZn-SOD ([7]; Week 12): 0.012 ± 0.0007 U/ml
Erythrocyte Glutathione Peroxidase ([7]; Week 12): 34.63 ± 2.2
